Measured values taken from the NIST ThermoML archive (doi:10.1007/s10765-012-1371-1).

Assay: xn = mol fraction of the nth substance listed
Settings: 101 kPa, Liquid

CCCCCl [1-chlorobutane] + COC(C)(C)C
viscosity [mPa·s]
Settings	283.15 K	288.15 K	293.15 K	298.15 K	303.15 K	308.15 K	313.15 K
x1 = 0.0499	0.395	0.369	0.3525	0.3367	0.3193	0.3033	0.288
x1 = 0.1002	0.4003	0.3741	0.3571	0.3409	0.3234	0.3074	0.2915
x1 = 0.2011	0.411	0.3844	0.3663	0.3494	0.332	0.3159	0.2991
x1 = 0.302	0.4224	0.3952	0.3758	0.3582	0.3408	0.3247	0.3068
x1 = 0.4007	0.4339	0.4063	0.3855	0.367	0.3498	0.3335	0.3146
x1 = 0.5026	0.4461	0.418	0.3959	0.3765	0.3592	0.3428	0.3229
x1 = 0.6029	0.4581	0.4295	0.4063	0.386	0.3686	0.3519	0.3312
x1 = 0.693	0.4686	0.4396	0.4155	0.3945	0.377	0.3605	0.3389
x1 = 0.8064	0.481	0.4518	0.4266	0.4048	0.3876	0.371	0.3482
x1 = 0.904	0.4912	0.4616	0.4355	0.4134	0.3966	0.3799	0.3563
x1 = 0.9509	0.4951	0.4658	0.4392	0.4173	0.4007	0.3841	0.3601
x1 = 1	0.4993	0.4701	0.4433	0.4214	0.405	0.3885	0.3642

CCCCOCC [butyl ethyl ether] + CC(C)CCl
viscosity [mPa·s]
Settings	283.15 K	288.15 K	293.15 K	298.15 K	303.15 K	308.15 K	313.15 K
x2 = 0	0.4796	0.4509	0.4242	0.399	0.3756	0.356	0.3416
x2 = 0.0493	0.4797	0.4512	0.4246	0.3993	0.3762	0.3569	0.3423
x2 = 0.1004	0.4799	0.4514	0.4248	0.3998	0.3771	0.3578	0.3432
x2 = 0.2001	0.4812	0.4526	0.4259	0.4012	0.3793	0.3603	0.3455
x2 = 0.3012	0.4836	0.4548	0.4279	0.4035	0.3822	0.3634	0.3481
x2 = 0.4021	0.4866	0.4574	0.4305	0.4063	0.3855	0.3667	0.3511
x2 = 0.5025	0.4903	0.4609	0.4337	0.4097	0.3893	0.3704	0.3543
x2 = 0.6007	0.4946	0.4649	0.4374	0.4133	0.3933	0.3745	0.3576
x2 = 0.6993	0.4994	0.4692	0.4412	0.4171	0.3975	0.3786	0.3612
x2 = 0.7994	0.5044	0.4736	0.4453	0.4211	0.4021	0.3832	0.3649
x2 = 0.8993	0.5099	0.4783	0.4496	0.4253	0.4065	0.3875	0.3687
x2 = 0.9491	0.5126	0.4808	0.4518	0.4274	0.4089	0.3898	0.3706

CC(C)CCl [1-chloro-2-methylpropane] + COC(C)(C)C
viscosity [mPa·s]
Settings	283.15 K	288.15 K	293.15 K	298.15 K	303.15 K	308.15 K	313.15 K
x1 = 0.0492	0.3948	0.369	0.3527	0.3369	0.3194	0.3035	0.2885
x1 = 0.0996	0.4002	0.3742	0.3573	0.3412	0.3237	0.3076	0.2926
x1 = 0.1979	0.4107	0.3844	0.3664	0.3495	0.3322	0.316	0.3005
x1 = 0.3023	0.4224	0.3957	0.3764	0.3587	0.3412	0.3248	0.3091
x1 = 0.4027	0.4338	0.4065	0.3861	0.3676	0.3502	0.3335	0.3174
x1 = 0.504	0.4458	0.4178	0.396	0.3768	0.3594	0.3424	0.3261
x1 = 0.5971	0.4574	0.4287	0.4057	0.3856	0.3681	0.351	0.3341
x1 = 0.7036	0.4714	0.442	0.4173	0.3962	0.3786	0.3611	0.3437
x1 = 0.8003	0.4848	0.4547	0.4286	0.4063	0.3886	0.3707	0.3527
x1 = 0.9031	0.5	0.4689	0.4413	0.4179	0.3998	0.3813	0.3626
x1 = 0.9522	0.5078	0.4763	0.4478	0.4238	0.4054	0.3868	0.3676
x1 = 1	0.5155	0.4833	0.454	0.4296	0.4112	0.3921	0.3726

CCC(C)Cl (stereo not given) [2-chlorobutane] + COC(C)(C)C
viscosity [mPa·s]
Settings	283.15 K	288.15 K	293.15 K	298.15 K	303.15 K	308.15 K	313.15 K
x1 = 0.0434	0.3916	0.3664	0.3507	0.3353	0.3177	0.3019	0.287
x1 = 0.0928	0.3949	0.3694	0.3536	0.3383	0.3207	0.3048	0.2897
x1 = 0.1824	0.4008	0.3752	0.3591	0.3436	0.3261	0.3099	0.2948
x1 = 0.2774	0.4072	0.3816	0.365	0.3495	0.3319	0.3155	0.3002
x1 = 0.3786	0.4141	0.3883	0.3715	0.3558	0.338	0.3215	0.306
x1 = 0.4751	0.4208	0.3951	0.3779	0.3619	0.3441	0.3273	0.3117
x1 = 0.584	0.4287	0.4029	0.3853	0.3691	0.351	0.334	0.3182
x1 = 0.6819	0.436	0.4101	0.3921	0.3757	0.3575	0.3401	0.3241
x1 = 0.8032	0.4456	0.4195	0.4009	0.3843	0.3657	0.3481	0.3317
x1 = 0.9015	0.4536	0.4274	0.4084	0.3915	0.3727	0.3547	0.3379
x1 = 0.9512	0.458	0.4318	0.4125	0.3954	0.3764	0.3581	0.3411
x1 = 1	0.4631	0.4365	0.4167	0.3993	0.38	0.3615	0.3443

CCCCOCC [butyl ethyl ether] + CCCCCl
viscosity [mPa·s]
Settings	283.15 K	288.15 K	293.15 K	298.15 K	303.15 K	308.15 K	313.15 K
x2 = 0	0.4796	0.4509	0.4242	0.399	0.3756	0.356	0.3416
x2 = 0.0515	0.4815	0.4523	0.4254	0.4002	0.3771	0.3576	0.3426
x2 = 0.1016	0.4832	0.4536	0.4265	0.4014	0.3785	0.359	0.3435
x2 = 0.2008	0.4862	0.4561	0.4286	0.4036	0.3812	0.3618	0.3452
x2 = 0.3003	0.489	0.4583	0.4307	0.4058	0.3839	0.365	0.3473
x2 = 0.4002	0.4914	0.4604	0.4326	0.408	0.3868	0.368	0.3493
x2 = 0.5014	0.4934	0.4623	0.4345	0.4102	0.3895	0.3712	0.3514
x2 = 0.6023	0.4951	0.4641	0.4364	0.4123	0.3925	0.3744	0.3537
x2 = 0.7003	0.4965	0.4657	0.4381	0.4145	0.3954	0.3777	0.3559
x2 = 0.8004	0.4977	0.4672	0.4398	0.4167	0.3985	0.381	0.3585
x2 = 0.9006	0.4986	0.4687	0.4416	0.4191	0.4016	0.3846	0.3612
x2 = 0.9502	0.4989	0.4694	0.4424	0.4201	0.4033	0.3866	0.3627
